Laboratory results: patent publication US10059674B2, “Design, synthesis, and biological evaluation of 1-methyl-1, 4-dihyrdoindeno[1,2-C]pyrazole analogues as potential anticaner agents targeting tubulin colchicine binding site” (ACT PHARMA CO., LTD., priority 2016, dated 2018)
Like-named read-outs stand apart in the source and are kept apart here.

What was measured:
in vitro [1] = conditions: rat, microsomes, pH 7.47
[2] = human, microsomes, 1 µM, pH 7.47
[3] = monkey, microsomes, 1 µM, pH 7.47
tubulin = assay: Tubulin polymerization experiment (Cytoskeleton Tubulin Polymerization Assay Kit); assay type: biochemical
Procedure: The tubulin polymerization experiment is carried out according to the specifications of Tubulin Polymerization Assay Kit of Cytoskeleton Corporation.

[4] = dog, microsomes, 1 µM, pH 7.47
in vitro [5] = conditions: mouse, liver microsomes, pH 7.47
in vitro [6] = conditions: monkey, microsomes, pH 7.47
[7] = rat, microsomes, 1 µM, pH 7.47
in vitro [8] = conditions: human, microsomes, pH 7.47
[9] = system: human breast adenocarcinoma (MCF-7) cells; assay: Anti-proliferation test (MTT colorimetry); assay type: cell-based; conditions: MCF7, MCF-7, 72 h
Procedure: (§1) The compound of formula 1 (prepared in embodiment 1), and the compound of formula 2 (prepared in embodiment 2) are given at different concentrations to human hepatocellular carcinoma (HepG2) cells, human prostate carcinoma (PC3) cells, human cervical carcinoma (HeLa) cells, human breast adenocarcinoma (MCF-7) cells, and human leukemia (K562) cells; all the groups are incubated 72 h in an incubator containing 5% of CO2 at 37° C., and then inhabitation ratios of the compounds to the tumor cells are measured by using methyl thiazolyl tetrazolium (MTT) colorimetry, and results are shown in table 1.

[10] = system: human leukemia (K562) cells; assay: Anti-proliferation test (MTT colorimetry); assay type: cell-based; conditions: K562, 72 h
Procedure: as §1

[11] = system: human cervical carcinoma (HeLa) cells; assay: Anti-proliferation test (MTT colorimetry); assay type: cell-based; conditions: 72 h
Procedure: as §1

[12] = system: human prostate carcinoma (PC3) cells; assay: Anti-proliferation test (MTT colorimetry); assay type: cell-based; conditions: PC-3, PC3, 72 h
Procedure: as §1

[13] = system: human hepatocellular carcinoma (HepG2) cells; assay: Anti-proliferation test (MTT colorimetry); assay type: cell-based; conditions: HepG2, 72 h
Procedure: as §1

[14] = MDCK cell permeability test; conditions: dog, MDCK, 90 min
MDCK cells = assay: MDCK cell permeability test; conditions: for Efllux ratio: Papp(B→A)/Papp(A→B)
P-gp = assay: MDCK cell permeability test; conditions: dog, MDCK
in vitro [15] = conditions: dog, microsomes, pH 7.47

CCOc1cccc(Nc2nn(C)c3c2Cc2cc(OCC)c(OCC(N)=O)cc2-3)c1 [LL-01]
half-life at 1 µM (in vitro [1]): 56.8 min
microsomal CLint at 1 µM (in vitro [1]): 24.4 µL/min/mg
Remainder ([2]; 0 h): 100.00%
Remainder ([2]; 10 min): 78.76%
Remainder ([2]; 0.5 h): 56.18%
Remainder ([2]; 1.5 h): 23.87%
Remainder ([3]; 0 h): 100.00%
Remainder ([3]; 10 min): 52.00%
Remainder ([3]; 0.5 h): 20.40%
Remainder ([3]; 1.5 h): 4.76%
inhibition of tubulin polymerization (in words) (tubulin; FIGS. 1 and 2): able to inhibit tubulin polymerization
IC50 (tubulin; read-out: tubulin polymerization inhibiting IC50): 4620 nM
Remainder ([4]; 0 h): 100.00%
Remainder ([4]; 10 min): 74.20%
Remainder ([4]; 0.5 h): 38.61%
Remainder ([4]; 1.5 h): 7.93%
half-life at 1 µM (in vitro [5]): 55.3 min
microsomal CLint at 1 µM (in vitro [5]): 25 µL/min/mg
half-life at 1 µM (in vitro [6]): 21.6 min
microsomal CLint at 1 µM (in vitro [6]): 64.2 µL/min/mg
Remainder ([7]; 0 h): 100.00%
Remainder ([7]; 10 min): 87.70%
Remainder ([7]; 0.5 h): 68.13%
Remainder ([7]; 1.5 h): 33.19%
half-life at 1 µM (in vitro [8]): 44.7 min
microsomal CLint at 1 µM (in vitro [8]): 31 µL/min/mg
IC50 [9]: 3.23 nM
IC50 [10]: 7.15 nM
IC50 [11]: 7.4 nM
IC50 [12]: 19 nM
IC50 [13]: 26 nM
Papp A→B at 90 min ([14]; Apparent permeability coefficient A→B, 1st line of the compound (condition not given)): 0.6 ×10⁻⁶ cm/s
Papp A→B at 90 min ([14]; Apparent permeability coefficient A→B, 2nd line of the compound (condition not given)): 16 ×10⁻⁶ cm/s
Papp A→B at 90 min, 10 µM ([14]; Apparent permeability coefficient A→B, 3rd line of the compound (condition not given)): 18 ×10⁻⁶ cm/s
Papp B→A at 90 min ([14]; Apparent permeability coefficient B→A, 1st line of the compound (condition not given)): 0.8 ×10⁻⁶ cm/s
Papp B→A at 90 min ([14]; Apparent permeability coefficient B→A, 2nd line of the compound (condition not given)): 18.9 ×10⁻⁶ cm/s
Papp B→A at 90 min, 10 µM ([14]; Apparent permeability coefficient B→A, 3rd line of the compound (condition not given)): 19.6 ×10⁻⁶ cm/s
recovery at 90 min ([14]; Recovery rate A→B, 2nd line of the compound (condition not given)): 69.4%
recovery at 90 min, 10 µM ([14]; Recovery rate A→B, 3rd line of the compound (condition not given)): 62.3%
recovery at 90 min ([14]; Recovery rate A→B, 1st line of the compound (condition not given; method: without / with 10 μM cyclosporine A)): 93.8%
recovery at 90 min ([14]; Recovery rate B→A, 1st line of the compound (condition not given)): 102%
recovery at 90 min ([14]; Recovery rate B→A, 2nd line of the compound (condition not given)): 85.4%
recovery at 90 min, 10 µM ([14]; Recovery rate B→A, 3rd line of the compound (condition not given)): 84.6%
PGP substrate judgment (MDCK cells; MDCK cells): is not the PGP substrate and No
Permeability Judgment (MDCK cells; MDCK cells): moderate permeability
Efllux ratio (MDCK cells; 2nd line of the compound (condition not given)): 1.2
Efllux ratio (MDCK cells; 3rd line of the compound (condition not given)): 1.1
efflux ratio at 90 min (P-gp): 1.2
half-life at 1 µM (in vitro [15]): 24.7 min
microsomal CLint at 1 µM (in vitro [15]): 56 µL/min/mg
